Assay results: PubChem BioAssay (NCI)
Where “and” joins values, the source holds several entries; their conditions need not be identical. Equal values may be shown once.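 Five concentrations, 48 hours, 96-well plates. Abbreviation: GI50, concentration required for 50% inhibition of growth. TGI marks complete inhibition of growth.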 Where a SMILES comes first, the peptide text is derived from it. [ ]: non-standard residue; d: D form. The star is where a group is joined. ξ: configuration not given here. X3 = COc1ccc(C(N*)c2ccc(OC)cc2)cc1; NMeF = CN[C@@H](Cc1ccccc1)C(=O)O; NMeD = CN[C@@H](CC(=O)O)C(=O)O; NMeV = CN[C@H](C(=O)O)C(C)C; ξNMeV = CNC(C(=O)O)C(C)C; Boc = CC(C)(C)OC(=O)*; ξNMeA = CNC(C)C(=O)O; ξV = CC(C)C(N)C(=O)O

Experiments:
Experiment in all cases: DTP human tumour cell line panel, 48 h
786-0 renal = tested on: 786-0 renal
ACHN renal = tested on: ACHN renal
CAKI-1 renal = tested on: CAKI-1 renal
IGROV1 ovarian = tested on: IGROV1 ovarian
KM12 colon = tested on: KM12 colon
NCI-H23 lung = tested on: NCI-H23 lung
PC-3 prostate = tested on: PC-3 prostate
RPMI-8226 leukemia = tested on: RPMI-8226 leukemia
UACC-257 melanoma = tested on: UACC-257 melanoma
UACC-62 melanoma = tested on: UACC-62 melanoma

SMILES | GI50 (786-0 renal) [µM] | TGI (786-0 renal) | GI50 (ACHN renal) [µM] | TGI (ACHN renal) | GI50 (CAKI-1 renal) [µM] | TGI (CAKI-1 renal) [µM] | GI50 (IGROV1 ovarian) [µM] | TGI (IGROV1 ovarian) | GI50 (KM12 colon) [µM] | TGI (KM12 colon) | GI50 (NCI-H23 lung) [µM] | TGI (NCI-H23 lung) | TGI (PC-3 prostate) [µM] | TGI (RPMI-8226 leukemia) [µM] | GI50 (UACC-257 melanoma) [µM] | TGI (UACC-257 melanoma) | GI50 (UACC-62 melanoma) [µM] | TGI (UACC-62 melanoma) | GI50 (PC-3 prostate) [µM] | GI50 (RPMI-8226 leukemia) [µM]
COc1ccc(C(NC(=O)C[C@@H](C(=O)N(C)C(C)C(=O)O)N(C)C(=O)[C@@H]2CCCN2C(=O)[C@H](C(C)C)N(C)C(=O)C(C(C)C)N(C)C(=O)[C@H](Cc2ccccc2)N(C)C(=O)C(NC(=O)OC(C)(C)C)C(C)C)c2ccc(OC)cc2)cc1 (stereo partly specified) (Boc-[ξV][NMeF][ξNMeV][NMeV]P[NMeD](X3)[ξNMeA]-OH) | 17.9 | 33.4 µM and 31.7 µM | 10.6 | 37.5 µM and 22.5 µM | 22.9 | 37.5 | 14.7 | 27.8 µM and 28 µM | 17.5 | 15.2 µM and 34.1 µM | 23.1 | 37.5 µM and 53.4 µM | 37.5 | 19.5 | 17.3 | 23 µM and 32.2 µM | 0.803 | 12.5 µM and 20.9 µM | – | –
COc1ccc2nc3cc(Cl)ccc3c(NCCNCC(C)O)c2c1 (stereo unspecified) | 1.68 | 5.83 µM | 1.43 | 7.22 µM | 1.57 | 4.54 | 2.69 | 10.2 µM | 2.02 | 8.74 µM | 1.93 | 6.16 µM | 5.86 | 6.36 | 2.14 | 3.73 µM | 2.01 | 4.31 µM | 2.33 | 2.54
O=C1CCCCN1c1ccccc1C#C/C=C\C#Cc1ccccc1C(F)(F)F | 1.61 | 7.26 µM | 2.67 | 14.7 µM | 1.68 | 9.83 | 1.12 | 3.63 µM | 1.8 | 11.4 µM | 1.26 | 4 µM | > 50 | 6.71 | 2.72 | 18.3 µM | 1.44 | 4.86 µM | 2.32 | 1.9
CCn1c(-c2nonc2N)nc2c(C#CC(C)(C)O)nc(OC[C@@H](N)c3ccccc3)cc21 | 2.98 | 6.35 µM | 4.17 | 9.42 µM | 6.53 | 14.1 | 5.04 | 10.4 µM | 3.05 | 6.75 µM | 5.13 | 10.8 µM | 25 | 15.5 | 5.67 | 9.83 µM | 4.89 | 8.79 µM | 7.73 | 6.51
CN(C)CC1CC/C(=C\c2ccc(O)cc2)C1=O (stereo unspecified) | – | 4.91 µM | – | 10.7 µM | – | 3.24 | – | 24.1 µM | – | 16.6 µM | – | 13.2 µM | 20.2 | 4 | – | 11.3 µM | – | 15.5 µM | – | –
COc1ccc(CCN=C2NC(=O)/C(=C/c3ccc4ncccc4c3)S2)cc1 | > 25 | > 25 µM | > 25 | > 25 µM | > 21.2 | > 25 | > 25 | > 25 µM | > 25 | > 25 µM | > 25 | > 25 µM | > 25 | > 25 | > 25 | > 25 µM | > 25 | > 25 µM | > 25 | > 25
Cc1csc(-c2nnc(Nc3ccc(Oc4ncccc4-c4ccnc(N)n4)cc3)c3ccccc23)c1 | > 100 | > 100 µM | 2.11 | > 100 µM | – | > 100 | 3.35 | > 100 µM | 2.41 | > 100 µM | 2.9 | > 100 µM | > 100 | > 100 | – | > 100 µM | 0.767 | > 100 µM | > 27.1 | 3.05
COc1cccc(C(=O)NC(c2ccc(C)cc2)c2cc(Cl)c3cccnc3c2O)c1 (stereo unspecified) | 0.725 | 5.5 µM | 0.445 | 10.4 µM | 0.465 | 15.8 | 0.5 | 12.4 µM | 0.545 | 16.8 µM | 0.552 | 22.2 µM | 16.2 | 19.1 | 0.653 | 12.7 µM | 0.357 | 3.13 µM | 0.423 | 0.621
O=C(/C=C/c1ccc(O)cc1)c1ccc(O)cc1 | – | > 100 µM | – | > 74.3 µM | – | 37.9 | – | > 100 µM | – | 19.8 µM | – | 62.6 µM | > 100 | 69 | – | 74.7 µM | – | > 66.8 µM | – | –
N#Cc1c[nH]n2c(N=Nc3ccc(Cl)cc3)c(O)nc12 | 51.6 | > 100 µM | 24.7 | 62 µM | 85.9 | > 100 | 50.5 | > 100 µM | 29.4 | > 100 µM | 18 | 51.2 µM | > 100 | 95.3 | 20.1 | 57.9 µM | 17.2 | 57 µM | 23.1 | 25.7
c1ccc(Sc2ncnc3ccccc23)cc1 | 14.9 | 34.5 µM | 11 | 31.6 µM | 12.7 | 32.3 | 4.5 | 34.3 µM | 13.2 | 28.2 µM | 8.52 | 25.7 µM | 60 | 37.6 | 11.9 | 34.7 µM | 9.06 | 23.5 µM | 12.3 | 9.49
